The target of the assay is ATX (human His-tagged) (Homo sapiens (Human), UniProt Q13822). In words: Human ATX enzyme inhibition assay (fluorescence quenching, MR121 substrate). Format: biochemical. Conditions: 30 nM ATX, 1 μM MR121 substrate, 30° C., pH 8.0. In outline:
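Tris-HCl buffer at pH 8.0 contained 140 mM NaCl, 5 mM KCl, 1 mM each CaCl2 and MgCl2, and 0.01% Triton X-100. The MR121 substrate (1 μM final) was incubated with enzyme for 15 min at 30 °C, and activity was read by fluorescence quenching.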
A word on the IC50: it is the point on the concentration scale where inhibition reaches its midpoint. Take `O=C(c1ccc2[nH]nnc2c1)N1C[C@H]2CN(C(=O)C3CCN(c4ccc(Cl)cc4)CC3)C[C@@H]2C1` [Example 19.23, [(3aR,6aR)-5-[1-(4-chlorophenyl)piperidine-4-carbonyl]-1,3,3a,4,6,6a-hexahydropyrrolo[3,4-c]pyrrol-2-yl]-(1H-benzotriazol-5-yl)methanone]: half-maximal inhibition (IC50) required 25 nM.
Next, `CC(C)Oc1cc(C(=O)N2C[C@@H]3CN(C(=O)[C@@H]4CCc5[nH]nnc5C4)C[C@H]3C2)cc2ccccc12` [Example 19.24, [(3aS,6aS)-5-[(5R)-4,5,6,7-tetrahydro-1H-benzotriazole-5-carbonyl]-1,3,3a,4,6,6a-hexahydropyrrolo[3,4-c]pyrrol-2-yl]-(4-propan-2-yloxynaphthalen-2-yl)methanone]: 7 nM.
The same measure for `CC(C)Oc1cc(C(=O)N2C[C@@H]3CN(C(=O)[C@@H]4CCc5[nH]nnc5C4)C[C@H]3C2)nc2ccccc12` [Example 19.25, [(3aS,6aS)-5-[(5R)-4,5,6,7-tetrahydro-1H-benzotriazole-5-carbonyl]-1,3,3a,4,6,6a-hexahydropyrrolo[3,4-c]pyrrol-2-yl]-(4-propan-2-yloxyquinolin-2-yl)methanone]: 15 nM; for `O=C(CCc1ccc(OC(F)(F)F)cc1F)N1C[C@@H]2CN(C(=O)[C@@H]3CCc4[nH]nnc4C3)C[C@H]2C1` [Example 19.26, 1-[(3aR,6aR)-5-[(5R)-4,5,6,7-tetrahydro-1H-benzotriazole-5-carbonyl]-1,3,3a,4,6,6a-hexahydropyrrolo[3,4-c]pyrrol-2-yl]-3-[2-fluoro-4-(trifluoromethoxy)phenyl]propan-1-one]: 5 nM.
Next, `Cc1cc(OCC(=O)N2C[C@@H]3CN(C(=O)[C@@H]4CCc5[nH]nnc5C4)C[C@H]3C2)c(C(C)C)cc1C#N` [Example 19.27, 4-[2-[(3aS,6aS)-5-[(5R)-4,5,6,7-tetrahydro-1H-benzotriazole-5-carbonyl]-1,3,3a,4,6,6a-hexahydropyrrolo[3,4-c]pyrrol-2-yl]-2-oxoethoxy]-2-methyl-5-propan-2-ylbenzonitrile]: 6 nM; `O=C(c1cc2ccccc2c(OCC(F)(F)F)n1)N1C[C@@H]2CN(C(=O)[C@@H]3CCc4[nH]nnc4C3)C[C@H]2C1` [Example 19.28, [(3aS,6aS)-5-[(5R)-4,5,6,7-tetrahydro-1H-benzotriazole-5-carbonyl]-1,3,3a,4,6,6a-hexahydropyrrolo[3,4-c]pyrrol-2-yl]-[1-(2,2,2-trifluoroethoxy)isoquinolin-3-yl]methanone]: 2 nM.
Consider `CC(C)(C)c1cc(Br)ccc1OCC(=O)N1C[C@@H]2CN(C(=O)[C@@H]3CCc4[nH]nnc4C3)C[C@H]2C1` [Example 19.29, 1-[(3aS,6aS)-5-[(5R)-4,5,6,7-tetrahydro-1H-benzotriazole-5-carbonyl]-1,3,3a,4,6,6a-hexahydropyrrolo[3,4-c]pyrrol-2-yl]-2-(4-bromo-2-tert-butylphenoxy)ethanone], for which it took 1 nM to reach half-maximal inhibition (IC50).
The same measure for `CC(C)(C)c1cc(Br)ccc1OCC(=O)N1C[C@@H]2CN(C(=O)c3ccc4[nH]nnc4c3)C[C@H]2C1` [Example 19.30, 1-[(3aS,6aS)-5-(1H-benzotriazole-5-carbonyl)-1,3,3a,4,6,6a-hexahydropyrrolo[3,4-c]pyrrol-2-yl]-2-(4-bromo-2-tert-butylphenoxy)ethanone]: 5 nM; for `CC(C)(C)c1cc(C#N)ccc1OCC(=O)N1C[C@@H]2CN(C(=O)[C@@H]3CCc4[nH]nnc4C3)C[C@H]2C1` [Example 19.31, 4-[2-[(3aS,6aS)-5-[(5R)-4,5,6,7-tetrahydro-1H-benzotriazole-5-carbonyl]-1,3,3a,4,6,6a-hexahydropyrrolo[3,4-c]pyrrol-2-yl]-2-oxoethoxy]-3-tert-butylbenzonitrile]: 2 nM; for `O=C(COc1ccc(OC(F)(F)F)cc1)N1C[C@@H]2CN(C(=O)[C@@H]3CCc4[nH]nnc4C3)C[C@H]2C1` [Example 19.34, 1-[(3aS,6aS)-5-[(5R)-4,5,6,7-tetrahydro-1H-benzotriazole-5-carbonyl]-1,3,3a,4,6,6a-hexahydropyrrolo[3,4-c]pyrrol-2-yl]-2-[4-(trifluoromethoxy)phenoxy]ethanone]: 3 nM.
The same measure for `CCOc1nc(C(=O)N2C[C@@H]3CN(C(=O)[C@@H]4CCc5[nH]nnc5C4)C[C@H]3C2)cc2ccccc12` [Example 19.35, [(3aS,6aS)-5-[(5R)-4,5,6,7-tetrahydro-1H-benzotriazole-5-carbonyl]-1,3,3a,4,6,6a-hexahydropyrrolo[3,4-c]pyrrol-2-yl]-(1-ethoxyisoquinolin-3-yl)methanone]: 2 nM; for `CCOc1cc(C(=O)N2C[C@@H]3CN(C(=O)c4ccc5[nH]nnc5c4)C[C@H]3C2)nc2ccccc12` [Example 19.37, ((3aS,6aS)-5-(1H-benzo[d][1,2,3]triazole-5-carbonyl)hexahydropyrrolo[3,4-c]pyrrol-2(1H)-yl)(4-ethoxyquinolin-2-yl)methanone]: 15 nM; for `O=C(c1ccc2[nH]nnc2c1)N1C[C@H]2CN(C(=O)c3cc(OCC(F)(F)F)c4ccccc4n3)C[C@@H]2C1` [Example 19.38, ((3aS,6aS)-5-(1H-benzo[d][1,2,3]triazole-5-carbonyl)hexahydropyrrolo[3,4-c]pyrrol-2(1H)-yl)(4-(2,2,2-trifluoroethoxy)quinolin-2-yl)methanone]: 5 nM.
The same measure for `O=C(c1cnc(OC2CCC2)c(C(F)(F)F)c1)N1C[C@@H]2CN(C(=O)c3ccc4[nH]nnc4c3)C[C@H]2C1` [Example 19.39, ((3aS,6aS)-5-(1H-benzo[d][1,2,3]triazole-5-carbonyl)hexahydropyrrolo[3,4-c]pyrrol-2(1H)-yl)(6-cyclobutoxy-5-(trifluoromethyl)pyridin-3-yl)methanone]: 7 nM; for `COCCOc1ncc(C(=O)N2C[C@@H]3CN(C(=O)c4ccc5[nH]nnc5c4)C[C@H]3C2)cc1Br` [Example 19.40, ((3aS,6aS)-5-(1H-benzo[d][1,2,3]triazole-5-carbonyl)hexahydropyrrolo[3,4-c]pyrrol-2(1H)-yl)(5-bromo-6-(2-methoxyethoxy)pyridin-3-yl)methanone]: 100 nM.
The molecule `O=C(c1cnc(OCC2CC2)c(Br)c1)N1C[C@@H]2CN(C(=O)c3ccc4[nH]nnc4c3)C[C@H]2C1` [Example 19.41, ((3aS,6aS)-5-(1H-benzo[d][1,2,3]triazole-5-carbonyl)hexahydropyrrolo[3,4-c]pyrrol-2(1H)-yl)(5-bromo-6-(cyclopropylmethoxy)pyridin-3-yl)methanone] had an IC50 of 685 nM.
Next, `O=C(c1cnc(OCC(F)(F)F)c(C2CC2)c1)N1C[C@@H]2CN(C(=O)c3ccc4[nH]nnc4c3)C[C@H]2C1` [Example 19.42, ((3aS,6aS)-5-(1H-benzo[d][1,2,3]triazole-5-carbonyl)hexahydropyrrolo[3,4-c]pyrrol-2(1H)-yl)(5-cyclopropyl-6-(2,2,2-trifluoroethoxy)pyridin-3-yl)methanone]: 10 nM.

The record behind these values is patent US10669268B2, “Bicyclic derivatives” (Hoffmann-La Roche Inc., priority 2012, dated 2020).
